Results published in patent publication US8530489B2 (Vertex Pharmaceuticals Incorporated, priority 2006, dated 2013).

What follows are compounds tested against PLK1 (Homo sapiens, UniProt P53350) (assay: PLK1 Inhibition Assay I (radioactive-phosphate incorporation)). Conditions: Ki(app); PLK1 Inhibition Assay I or II (table does not say which).
Sequence of PLK1 (P53350 whole entry): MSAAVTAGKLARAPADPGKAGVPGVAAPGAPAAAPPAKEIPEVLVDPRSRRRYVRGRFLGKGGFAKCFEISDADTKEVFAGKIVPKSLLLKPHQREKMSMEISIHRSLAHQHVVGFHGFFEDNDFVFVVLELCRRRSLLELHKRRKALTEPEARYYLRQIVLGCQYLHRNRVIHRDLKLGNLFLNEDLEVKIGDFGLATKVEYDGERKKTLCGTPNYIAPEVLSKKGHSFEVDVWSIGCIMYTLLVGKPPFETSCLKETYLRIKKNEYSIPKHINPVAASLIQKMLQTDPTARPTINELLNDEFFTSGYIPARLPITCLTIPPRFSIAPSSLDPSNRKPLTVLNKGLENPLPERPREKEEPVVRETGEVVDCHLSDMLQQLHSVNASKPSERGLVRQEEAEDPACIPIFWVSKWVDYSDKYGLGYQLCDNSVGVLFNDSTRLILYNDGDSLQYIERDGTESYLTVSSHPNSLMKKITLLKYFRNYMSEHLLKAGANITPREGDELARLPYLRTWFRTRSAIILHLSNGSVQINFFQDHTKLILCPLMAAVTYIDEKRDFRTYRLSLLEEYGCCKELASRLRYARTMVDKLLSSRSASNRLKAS
Assay type: biochemical
Method in brief: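 Ki(app) values came from non-linear regression of initial rates after background subtraction, with phosphopeptide measured by phosphocellulose filter binding and scintillation counting. PLK1 at 2 nM was preincubated with compound (typically from 10 μM, 2-fold dilutions) for 10 min, then run 240 min at 25° C with 350 μM [γ-33P]ATP and 450 μM peptide substrate in HEPES pH 7.5 buffer.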
`CC(C)(Nc1ncc(C#N)c(-c2c[nH]c3ncccc23)n1)C(=O)NCC(F)(F)F` [IA-10, 2-(5-cyano-4-(1H-pyrrolo[2,3-b]pyridin-3-yl)pyrimidin-2-ylamino)-2-methyl-N-(2,2,2-trifluoroethyl)propanamide] gave a Ki of over 0.04 µM.
`CC(C)Nc1ncc(C#N)c(-c2c[nH]c3ncc(C(F)(F)F)cc23)n1` [Compound I-3, 2-(isopropylamino)-4-(5-(trifluoromethyl)-1H-pyrrolo[2,3-b]pyridin-3-yl)pyrimidine-5-carbonitrile] showed a Ki of 0.003 to 0.04 µM.
`N#Cc1cnc(NC2CCCC2)nc1-c1c[nH]c2ncc(C(F)(F)F)cc12` [Compound I-73, 2-(cyclopentylamino)-4-(5-(trifluoromethyl)-1H-pyrrolo[2,3-b]pyridin-3-yl)pyrimidine-5-carbonitrile] showed a Ki of 0.003 to 0.04 µM.
With `CC(Nc1ncc(C#N)c(-c2c[nH]c3ncc(C(F)(F)F)cc23)n1)C1CN(C(=O)C(C)(C)O)C1` (stereo not shown) [Compound I-221, 2-(1-(1-(2-hydroxy-2-methylpropanoyl)azetidin-3-yl)ethylamino)-4-(5-(trifluoromethyl)-1H-pyrrolo[2,3-b]pyridin-3-yl)pyrimidine-5-carbonitrile] the Ki was 0.003 to 0.04 µM.
`CC(C)NC(=O)c1ccc([C@@H](C)Nc2ncc(C#N)c(-c3c[nH]c4ncc(C(F)(F)F)cc34)n2)cc1` [Compound I-172, 4-((1R)-1-(5-cyano-4-(5-(trifluoromethyl)-1H-pyrrolo[2,3-b]pyridin-3-yl)pyrimidin-2-ylamino)ethyl)-N-isopropylbenzamide] gave a Ki of 0.003 to 0.04 µM.
Compound `C[C@@H](Nc1ncc(C#N)c(-c2c[nH]c3ncc(C(F)(F)F)cc23)n1)c1ccc(NC(=O)C2CC2)cc1` [Compound I-137, N-(4-((1R)-1-(5-cyano-4-(5-(trifluoromethyl)-1H-pyrrolo[2,3-b]pyridin-3-yl)pyrimidin-2-ylamino)ethyl)phenyl)cyclopropanecarboxamide] has a Ki of under 0.003 µM.
For `CC(C)(C)Nc1ncc(C#N)c(-c2c[nH]c3ncc(C(F)(F)F)cc23)n1` [Compound I-4, 2-(tert-butylamino)-4-(5-(trifluoromethyl)-1H-pyrrolo[2,3-b]pyridin-3-yl)pyrimidine-5-carbonitrile], the Ki was over 0.04 µM.
With `N#Cc1cnc(NCCCn2ccnc2)nc1-c1c[nH]c2ncc(C(F)(F)F)cc12` [Compound I-80, 2-(3-(1H-imidazol-1-yl)propylamino)-4-(5-(trifluoromethyl)-1H-pyrrolo[2,3-b]pyridin-3-yl)pyrimidine-5-carbonitrile] the Ki was over 0.04 µM.
For `C[C@@H](Nc1ncc(C#N)c(-c2c[nH]c3ncc(C(F)(F)F)cc23)n1)c1ccc(N2CC[C@@H](N(C)C)C2)nc1` [Compound I-286, 2-((R)-1-(6-((R)-3-(dimethylamino)pyrrolidin-1-yl)pyridin-3-yl)ethylamino)-4-(5-(trifluoromethyl)-1H-pyrrolo[2,3-b]pyridin-3-yl)pyrimidine-5-carbonitrile], the Ki was 0.003 to 0.04 µM.
For `CC(C)CNc1ncc(C#N)c(-c2c[nH]c3ncc(C(F)(F)F)cc23)n1` [Compound I-36, 2-(isobutylamino)-4-(5-(trifluoromethyl)-1H-pyrrolo[2,3-b]pyridin-3-yl)pyrimidine-5-carbonitrile], the Ki was 0.003 to 0.04 µM.
`C[C@@H](Nc1ncc(C#N)c(-c2c[nH]c3ncc(C(F)(F)F)cc23)n1)C1CCN(C(=O)CC#N)CC1` [Compound I-233, 2-((R)-1-(1-(2-cyanoacetyl)piperidin-4-yl)ethylamino)-4-(5-(trifluoromethyl)-1H-pyrrolo[2,3-b]pyridin-3-yl)pyrimidine-5-carbonitrile] gave a Ki of under 0.003 µM.
In the case of `C[C@@H](Nc1ncc(C#N)c(-c2c[nH]c3ncc(C(F)(F)F)cc23)n1)C(=O)NCCO` [IA-12, (2R)-2-(5-cyano-4-(5-(trifluoromethyl)-1H-pyrrolo[2,3-b]pyridin-3-yl)pyrimidin-2-ylamino)-N-(2-hydroxyethyl)-propanamide], the Ki is reported as 0.003 to 0.04 µM.
`CCCNc1ncc(C#N)c(-c2c[nH]c3ncc(C(F)(F)F)cc23)n1` [Compound I-93, 2-(propylamino)-4-(5-(trifluoromethyl)-1H-pyrrolo[2,3-b]pyridin-3-yl)pyrimidine-5-carbonitrile] gave a Ki of 0.003 to 0.04 µM.
In the case of `C[C@H](O)[C@@H](N)C(=O)N1CCC([C@@H](C)Nc2ncc(C#N)c(-c3c[nH]c4ncc(C(F)(F)F)cc34)n2)CC1` [Compound I-249, 2-((R)-1-(1-((2R,3S)-2-amino-3-hydroxybutanoyl)piperidin-4-yl)ethylamino)-4-(5-(trifluoromethyl)-1H-pyrrolo[2,3-b]pyridin-3-yl)pyrimidine-5-carbonitrile], the Ki is reported as under 0.003 µM.
Work on `CN(C)c1ccc(CNc2ncc(C#N)c(-c3c[nH]c4ncc(C(F)(F)F)cc34)n2)cc1` [Compound I-59, 2-(4-(dimethylamino)benzylamino)-4-(5-(trifluoromethyl)-1H-pyrrolo[2,3-b]pyridin-3-yl)pyrimidine-5-carbonitrile] yielded a Ki of 0.003 to 0.04 µM.
`C[C@@H](Nc1ncc(C#N)c(-c2c[nH]c3ncc(C(F)(F)F)cc23)n1)C1CCN(C(=O)CCO)CC1` [Compound I-216, 2-((R)-1-(1-(3-hydroxypropanoyl)piperidin-4-yl)ethylamino)-4-(5-(trifluoromethyl)-1H-pyrrolo[2,3-b]pyridin-3-yl)pyrimidine-5-carbonitrile] showed a Ki of under 0.003 µM.
`C[C@@H](Nc1ncc(C#N)c(-c2c[nH]c3ncc(C(F)(F)F)cc23)n1)c1cccc(C(F)(F)F)c1` [Compound I-45, 4-(5-(trifluoromethyl)-1H-pyrrolo[2,3-b]pyridin-3-yl)-2-((R)-1-(3-(trifluoromethyl)phenyl)ethylamino)pyrimidine-5-carbonitrile] gave a Ki of 0.003 to 0.04 µM.
For `C=C1CC(C(C)Nc2ncc(C#N)c(-c3c[nH]c4ncc(C(F)(F)F)cc34)n2)C1` (stereo not shown) [Compound I-214, 2-(1-(3-methylenecyclobutyl)ethylamino)-4-(5-(trifluoromethyl)-1H-pyrrolo[2,3-b]pyridin-3-yl)pyrimidine-5-carbonitrile], the Ki was 0.003 to 0.04 µM.
In the case of `C[C@@H](Nc1ncc(C#N)c(-c2c[nH]c3ncc(C(F)(F)F)cc23)n1)c1ccc(N[C@H]2CCN(C)C2)nc1` [Compound I-280, 2-(1-(6-((S)-1-methylpyrrolidin-3-ylamino)pyridin-3-yl)ethylamino)-4-(5-(trifluoromethyl)-1H-pyrrolo[2,3-b]pyridin-3-yl)pyrimidine-5-carbonitrile], the Ki is reported as 0.003 to 0.04 µM.
In the case of `CC(C)(Nc1ncc(C#N)c(-c2c[nH]c3ncc(C(F)(F)F)cc23)n1)c1ccccc1` [Compound I-9, 2-(2-phenylpropan-2-ylamino)-4-(5-(trifluoromethyl)-1H-pyrrolo[2,3-b]pyridin-3-yl)pyrimidine-5-carbonitrile], the Ki is reported as 0.003 to 0.04 µM.
Work on `COc1ccccc1CNc1ncc(C#N)c(-c2c[nH]c3ncc(C(F)(F)F)cc23)n1` [Compound I-15, 2-(2-methoxybenzylamino)-4-(5-(trifluoromethyl)-1H-pyrrolo[2,3-b]pyridin-3-yl)pyrimidine-5-carbonitrile] yielded a Ki of over 0.04 µM.
`C[C@H](Nc1ncc(C#N)c(-c2c[nH]c3ncc(C(F)(F)F)cc23)n1)c1ccc(O[C@@H]2CCN(C)C2)nc1` [Compound I-301, 2-((S)-1-(6-(I-1-methylpyrrolidin-3-yloxy)pyridin-3-yl)ethylamino)-4-(5-(trifluoromethyl)-1H-pyrrolo[2,3-b]pyridin-3-yl)pyrimidine-5-carbonitrile] was tested, and the Ki was over 0.04 µM.
For `C[C@@H](Nc1ncc(C#N)c(-c2c[nH]c3ncc(C(F)(F)F)cc23)n1)c1ccc(N2CCCC2=O)cc1` [Compound I-145, 2-((R)-1-(4-(2-oxopyrrolidin-1-yl)phenyl)ethylamino)-4-(5-(trifluoromethyl)-1H-pyrrolo[2,3-b]pyridin-3-yl)pyrimidine-5-carbonitrile], the Ki was under 0.003 µM.
For `CC(C)S(=O)(=O)N1CCC([C@@H](C)Nc2ncc(C#N)c(-c3c[nH]c4ncc(C(F)(F)F)cc34)n2)CC1` [Compound I-213, 2-((R)-1-(1-(isopropylsulfonyl)piperidin-4-yl)ethylamino)-4-(5-(trifluoromethyl)-1H-pyrrolo[2,3-b]pyridin-3-yl)pyrimidine-5-carbonitrile], the Ki was under 0.003 µM.
With `CCCC(C)Nc1ncc(C#N)c(-c2c[nH]c3ncc(C(F)(F)F)cc23)n1` (stereo not shown) [Compound I-35, 2-(pentan-2-ylamino)-4-(5-(trifluoromethyl)-1H-pyrrolo[2,3-b]pyridin-3-yl)pyrimidine-5-carbonitrile] the Ki was 0.003 to 0.04 µM.
`CC(C)(Nc1ncc(C#N)c(-c2c[nH]c3ncc(Cl)cc23)n1)C(=O)NCC(F)(F)F` [IA-11, 2-(4-(5-chloro-1H-pyrrolo[2,3-b]pyridin-3-yl)-5-cyanopyrimidin-2-ylamino)-2-methyl-N-(2,2,2-trifluoroethyl)propanamide] gave a Ki of 0.003 to 0.04 µM.
In the case of `N#Cc1cnc(NCc2ccncc2)nc1-c1c[nH]c2ncc(C(F)(F)F)cc12` [Compound I-23, 2-(pyridin-4-ylmethylamino)-4-(5-(trifluoromethyl)-1H-pyrrolo[2,3-b]pyridin-3-yl)pyrimidine-5-carbonitrile], the Ki is reported as over 0.04 µM.
`N#Cc1cnc(NCc2ccccc2Cl)nc1-c1c[nH]c2ncc(C(F)(F)F)cc12` [Compound I-17, 2-(2-chlorobenzylamino)-4-(5-(trifluoromethyl)-1H-pyrrolo[2,3-b]pyridin-3-yl)pyrimidine-5-carbonitrile] showed a Ki of over 0.04 µM.
`CC(C)C(C)Nc1ncc(C#N)c(-c2c[nH]c3ncc(C(F)(F)F)cc23)n1` (stereo not shown) [Compound I-24, 2-(3-methylbutan-2-ylamino)-4-(5-(trifluoromethyl)-1H-pyrrolo[2,3-b]pyridin-3-yl)pyrimidine-5-carbonitrile] gave a Ki of 0.003 to 0.04 µM.
`CNC(=O)N1CCC(C(C)Nc2ncc(C#N)c(-c3c[nH]c4ncc(C(F)(F)F)cc34)n2)CC1` (stereo not shown) [Compound I-160, 4-(1-(5-cyano-4-(5-(trifluoromethyl)-1H-pyrrolo[2,3-b]pyridin-3-yl)pyrimidin-2-ylamino)ethyl)-N-methylpiperidine-1-carboxamide] gave a Ki of under 0.003 µM.
`CC(C)C[C@H](CO)Nc1ncc(C#N)c(-c2c[nH]c3ncc(C(F)(F)F)cc23)n1` [Compound I-44, 2-((R)-1-hydroxy-4-methylpentan-2-ylamino)-4-(5-(trifluoromethyl)-1H-pyrrolo[2,3-b]pyridin-3-yl)pyrimidine-5-carbonitrile] showed a Ki of over 0.04 µM.
